≈ marks a conversion by molar mass, not a printed value.
Assays:
TEC = target: T1, TEC (Homo sapiens, UniProt P42680); experiment: Inhibition of recombinant human cytoplasmic full length His-tagged TEC expressed in baculovirus at 1 uM by Z'-LYTE assay
T1 sequence (P42680 whole entry): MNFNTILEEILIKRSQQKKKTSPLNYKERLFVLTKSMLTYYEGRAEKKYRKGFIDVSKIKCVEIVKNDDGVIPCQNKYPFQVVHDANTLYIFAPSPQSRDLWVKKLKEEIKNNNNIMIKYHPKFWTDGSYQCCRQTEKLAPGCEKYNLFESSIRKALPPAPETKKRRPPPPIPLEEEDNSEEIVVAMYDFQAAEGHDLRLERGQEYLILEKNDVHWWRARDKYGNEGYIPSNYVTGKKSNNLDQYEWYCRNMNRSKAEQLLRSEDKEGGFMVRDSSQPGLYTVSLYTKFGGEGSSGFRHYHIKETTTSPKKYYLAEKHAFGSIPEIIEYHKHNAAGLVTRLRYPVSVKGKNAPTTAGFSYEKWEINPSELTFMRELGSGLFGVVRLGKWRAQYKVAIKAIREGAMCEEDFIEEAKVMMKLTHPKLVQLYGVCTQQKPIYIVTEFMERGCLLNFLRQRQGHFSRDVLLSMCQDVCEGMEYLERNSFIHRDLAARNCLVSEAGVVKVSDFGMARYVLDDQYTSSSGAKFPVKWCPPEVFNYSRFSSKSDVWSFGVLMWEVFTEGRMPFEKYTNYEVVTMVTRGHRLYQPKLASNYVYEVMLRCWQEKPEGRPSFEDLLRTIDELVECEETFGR

BMX = BMX (Homo sapiens, UniProt P51813); experiment: Inhibition of cytoplasmic recombinant human full length His-tagged BMX expressed in baculovirus at 1 uM by Z'-LYTE assay
EGFR = EGFR (Homo sapiens, UniProt P00533); experiment: Inhibition of recombinant human cytoplasmic GST-tagged EGFR expressed in baculovirus at 1 uM by Z'-LYTE assay
JAK3 = target: T2, JAK3 (Homo sapiens, UniProt P52333); experiment: Inhibition of recombinant human catalytic GST-tagged JAK3 expressed in baculovirus at 1 uM by Z'-LYTE assay
T2 sequence (P52333 whole entry): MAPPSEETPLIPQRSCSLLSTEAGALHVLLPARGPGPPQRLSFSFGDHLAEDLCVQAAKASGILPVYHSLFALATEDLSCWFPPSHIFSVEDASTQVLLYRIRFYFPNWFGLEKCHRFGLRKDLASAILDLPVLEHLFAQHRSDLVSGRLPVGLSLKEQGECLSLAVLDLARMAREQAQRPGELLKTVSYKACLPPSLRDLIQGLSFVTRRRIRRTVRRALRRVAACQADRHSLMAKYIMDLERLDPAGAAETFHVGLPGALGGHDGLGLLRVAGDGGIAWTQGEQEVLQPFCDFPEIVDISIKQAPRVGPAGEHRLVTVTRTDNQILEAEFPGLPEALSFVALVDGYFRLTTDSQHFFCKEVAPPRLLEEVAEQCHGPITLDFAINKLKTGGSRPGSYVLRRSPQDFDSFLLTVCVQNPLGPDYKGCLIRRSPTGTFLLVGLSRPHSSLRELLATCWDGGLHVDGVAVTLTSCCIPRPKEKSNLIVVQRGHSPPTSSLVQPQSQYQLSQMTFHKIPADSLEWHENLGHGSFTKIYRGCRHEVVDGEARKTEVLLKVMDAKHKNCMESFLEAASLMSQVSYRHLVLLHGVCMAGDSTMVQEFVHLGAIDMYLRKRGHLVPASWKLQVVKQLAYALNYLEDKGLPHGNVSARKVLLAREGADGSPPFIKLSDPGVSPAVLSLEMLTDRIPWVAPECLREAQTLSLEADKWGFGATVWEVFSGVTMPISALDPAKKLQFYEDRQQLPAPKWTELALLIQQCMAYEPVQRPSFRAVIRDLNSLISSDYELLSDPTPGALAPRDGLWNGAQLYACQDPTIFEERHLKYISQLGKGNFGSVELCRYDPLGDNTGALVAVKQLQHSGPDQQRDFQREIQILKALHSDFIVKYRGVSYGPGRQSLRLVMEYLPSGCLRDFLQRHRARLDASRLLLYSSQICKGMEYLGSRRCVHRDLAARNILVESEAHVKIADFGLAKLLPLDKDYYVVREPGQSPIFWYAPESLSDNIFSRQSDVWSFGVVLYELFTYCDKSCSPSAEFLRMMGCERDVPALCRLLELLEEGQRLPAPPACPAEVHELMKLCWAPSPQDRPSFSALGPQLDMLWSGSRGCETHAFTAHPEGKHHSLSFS

ERBB2 = ERBB2 (Homo sapiens, UniProt P04626); experiment: Inhibition of recombinant human cytoplasmic His-tagged ERBB2 expressed in baculovirus at 1 uM by Z'-LYTE assay
TXK = target: T3, TXK (Homo sapiens, UniProt P42681); experiment: Inhibition of human full length GST-tagged TXK expressed in baculovirus at 1 uM by Z'-LYTE assay
T3 sequence (P42681 whole entry): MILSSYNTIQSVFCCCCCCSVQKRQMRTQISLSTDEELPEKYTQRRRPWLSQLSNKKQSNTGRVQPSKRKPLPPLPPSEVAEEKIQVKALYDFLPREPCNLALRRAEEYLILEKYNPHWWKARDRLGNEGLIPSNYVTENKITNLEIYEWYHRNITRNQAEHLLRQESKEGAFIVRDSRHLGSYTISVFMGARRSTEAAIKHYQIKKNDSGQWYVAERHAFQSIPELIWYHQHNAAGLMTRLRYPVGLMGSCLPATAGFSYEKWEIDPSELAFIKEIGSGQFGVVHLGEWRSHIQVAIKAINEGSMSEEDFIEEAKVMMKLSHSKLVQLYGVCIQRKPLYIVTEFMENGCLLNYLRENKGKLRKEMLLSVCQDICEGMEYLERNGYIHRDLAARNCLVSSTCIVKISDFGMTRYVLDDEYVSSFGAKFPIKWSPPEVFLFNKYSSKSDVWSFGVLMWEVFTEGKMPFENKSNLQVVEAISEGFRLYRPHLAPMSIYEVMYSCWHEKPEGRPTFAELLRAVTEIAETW

LTK = LTK (Homo sapiens, UniProt P29376); experiment: Inhibition of recombinant human cytoplasmic GST-tagged LTK expressed in baculovirus at 1 uM by Z'-LYTE assay
ERBB4 = ERBB4 (Homo sapiens, UniProt Q15303); experiment: Inhibition of recombinant human cytoplasmic GST-tagged ERBB4 expressed in baculovirus at 1 uM by Z'-LYTE assay
BLK = BLK (Homo sapiens, UniProt P51451); experiment: Inhibition of recombinant human full length His-tagged BLK expressed in baculovirus at 1 uM by Z'-LYTE assay
physchem = details: buffer, pH 7.4
[1] = Kinetic solubility of the compound; format: physicochemical; details: read-out: Kinetic_solubility
[2] = Clearance in human liver microsomes at 1 uM incubated up to 60 mins by LC-MS/MS method; format: ADME, microsome
[3] = Clearance in human hepatocytes at 1 uM incubated up to 60 mins by LC-MS/MS method; format: ADME, cell-based, Hepatocyte
[4] = Permeability across apical to basolateral in MDCK1 cells; format: ADME, cell-based, Canis lupus familiaris; details: dog, MDCK; read-out: permeability
[5] = target: T4, Tyrosine-protein kinase BTK (Homo sapiens, UniProt Q06187)
Description: Inhibition of BTK in human whole blood derived-basophils assessed as suppression of IgE mediated-FcepsilonR ligation-stimulated CD63 expression

[6] = target: T4, Tyrosine-protein kinase BTK; remark: listed apart in the source
Description: Inhibition of BTK in human whole blood-derived CD19+ B cells assessed as suppression of anti-IgM stimulated-CD69 expression preincubated for 1 hr followed by IgM stimulation for 18 hrs by FACS analysis

in vitro = details: dog, MDCK
Description: Efflux ratio of permeability in MDCK1 cells

[7] = target: T4, Tyrosine-protein kinase BTK; experiment: Inhibition of human recombinant C-terminal polyhistidine tagged BTK (1 to 659 residues)-mediated synthetic peptide substrate phosphorylation expressed in baculovirus-infected insect cells

Chain of ERBB4 (Q15303 whole entry): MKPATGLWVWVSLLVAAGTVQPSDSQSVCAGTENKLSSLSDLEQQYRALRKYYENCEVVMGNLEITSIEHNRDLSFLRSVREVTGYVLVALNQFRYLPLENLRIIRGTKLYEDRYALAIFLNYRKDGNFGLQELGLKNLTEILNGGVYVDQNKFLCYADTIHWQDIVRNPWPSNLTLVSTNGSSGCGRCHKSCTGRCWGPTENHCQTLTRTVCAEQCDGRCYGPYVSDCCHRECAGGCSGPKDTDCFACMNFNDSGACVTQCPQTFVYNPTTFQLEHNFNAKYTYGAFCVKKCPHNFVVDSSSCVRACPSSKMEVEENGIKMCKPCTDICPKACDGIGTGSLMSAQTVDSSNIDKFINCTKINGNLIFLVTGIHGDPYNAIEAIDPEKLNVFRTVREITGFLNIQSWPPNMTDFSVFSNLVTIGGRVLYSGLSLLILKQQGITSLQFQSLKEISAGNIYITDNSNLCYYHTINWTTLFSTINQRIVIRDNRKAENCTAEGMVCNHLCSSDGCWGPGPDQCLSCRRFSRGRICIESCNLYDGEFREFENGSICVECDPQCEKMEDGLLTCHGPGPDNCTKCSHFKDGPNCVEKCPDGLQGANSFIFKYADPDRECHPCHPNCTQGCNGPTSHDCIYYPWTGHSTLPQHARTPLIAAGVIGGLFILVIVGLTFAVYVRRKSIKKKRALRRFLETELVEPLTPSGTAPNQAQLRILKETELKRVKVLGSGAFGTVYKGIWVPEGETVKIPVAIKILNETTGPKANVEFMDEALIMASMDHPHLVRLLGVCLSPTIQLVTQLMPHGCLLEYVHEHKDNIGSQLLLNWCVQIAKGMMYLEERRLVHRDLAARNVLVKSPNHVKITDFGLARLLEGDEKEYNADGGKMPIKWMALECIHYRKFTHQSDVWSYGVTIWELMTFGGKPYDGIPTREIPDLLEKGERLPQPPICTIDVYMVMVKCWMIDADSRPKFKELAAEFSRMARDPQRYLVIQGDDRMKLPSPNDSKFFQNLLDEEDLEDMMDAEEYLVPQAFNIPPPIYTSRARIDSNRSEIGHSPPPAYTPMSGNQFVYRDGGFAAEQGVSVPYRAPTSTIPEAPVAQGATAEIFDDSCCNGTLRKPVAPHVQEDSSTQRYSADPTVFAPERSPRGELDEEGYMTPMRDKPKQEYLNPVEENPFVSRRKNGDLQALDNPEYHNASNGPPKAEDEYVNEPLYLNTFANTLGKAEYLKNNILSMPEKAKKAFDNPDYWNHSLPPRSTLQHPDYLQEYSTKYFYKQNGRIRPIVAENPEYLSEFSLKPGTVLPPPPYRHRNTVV
Chain of LTK (P29376 whole entry): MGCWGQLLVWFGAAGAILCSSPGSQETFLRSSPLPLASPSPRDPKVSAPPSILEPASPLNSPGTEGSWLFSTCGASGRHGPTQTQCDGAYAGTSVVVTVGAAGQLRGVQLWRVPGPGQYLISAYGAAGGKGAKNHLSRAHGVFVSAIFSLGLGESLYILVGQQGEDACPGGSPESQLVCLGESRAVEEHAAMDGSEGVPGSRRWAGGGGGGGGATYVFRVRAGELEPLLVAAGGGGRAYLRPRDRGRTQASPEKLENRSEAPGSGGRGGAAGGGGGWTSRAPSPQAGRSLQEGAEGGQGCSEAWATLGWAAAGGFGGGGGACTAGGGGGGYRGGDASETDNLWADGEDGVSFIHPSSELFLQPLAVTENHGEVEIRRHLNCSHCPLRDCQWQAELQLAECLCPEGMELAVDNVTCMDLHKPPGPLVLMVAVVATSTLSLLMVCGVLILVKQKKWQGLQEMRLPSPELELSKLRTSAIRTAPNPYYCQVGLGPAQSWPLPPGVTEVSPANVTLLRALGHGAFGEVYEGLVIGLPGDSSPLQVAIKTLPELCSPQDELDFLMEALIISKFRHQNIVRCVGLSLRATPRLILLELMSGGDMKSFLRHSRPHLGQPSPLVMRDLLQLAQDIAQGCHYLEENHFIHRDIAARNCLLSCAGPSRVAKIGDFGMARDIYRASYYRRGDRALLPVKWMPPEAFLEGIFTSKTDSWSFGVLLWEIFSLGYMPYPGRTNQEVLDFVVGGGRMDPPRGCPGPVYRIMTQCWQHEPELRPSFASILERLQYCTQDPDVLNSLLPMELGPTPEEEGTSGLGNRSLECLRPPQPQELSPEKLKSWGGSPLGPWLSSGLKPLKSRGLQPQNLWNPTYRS
Chain of BLK (P51451 whole entry): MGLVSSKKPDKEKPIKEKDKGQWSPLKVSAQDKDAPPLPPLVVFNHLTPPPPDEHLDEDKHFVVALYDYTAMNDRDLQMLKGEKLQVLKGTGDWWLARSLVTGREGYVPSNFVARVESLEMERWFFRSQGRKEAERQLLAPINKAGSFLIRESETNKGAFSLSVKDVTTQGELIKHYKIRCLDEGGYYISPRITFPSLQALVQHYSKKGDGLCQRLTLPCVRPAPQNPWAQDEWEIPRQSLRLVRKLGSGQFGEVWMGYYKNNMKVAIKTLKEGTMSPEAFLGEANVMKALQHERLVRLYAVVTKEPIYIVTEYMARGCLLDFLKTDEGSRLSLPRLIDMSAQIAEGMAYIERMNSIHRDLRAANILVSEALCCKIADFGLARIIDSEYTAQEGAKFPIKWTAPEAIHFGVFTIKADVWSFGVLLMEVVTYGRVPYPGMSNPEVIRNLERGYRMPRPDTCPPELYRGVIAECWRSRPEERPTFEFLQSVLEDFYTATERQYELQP
Chain of ERBB2 (P04626 whole entry): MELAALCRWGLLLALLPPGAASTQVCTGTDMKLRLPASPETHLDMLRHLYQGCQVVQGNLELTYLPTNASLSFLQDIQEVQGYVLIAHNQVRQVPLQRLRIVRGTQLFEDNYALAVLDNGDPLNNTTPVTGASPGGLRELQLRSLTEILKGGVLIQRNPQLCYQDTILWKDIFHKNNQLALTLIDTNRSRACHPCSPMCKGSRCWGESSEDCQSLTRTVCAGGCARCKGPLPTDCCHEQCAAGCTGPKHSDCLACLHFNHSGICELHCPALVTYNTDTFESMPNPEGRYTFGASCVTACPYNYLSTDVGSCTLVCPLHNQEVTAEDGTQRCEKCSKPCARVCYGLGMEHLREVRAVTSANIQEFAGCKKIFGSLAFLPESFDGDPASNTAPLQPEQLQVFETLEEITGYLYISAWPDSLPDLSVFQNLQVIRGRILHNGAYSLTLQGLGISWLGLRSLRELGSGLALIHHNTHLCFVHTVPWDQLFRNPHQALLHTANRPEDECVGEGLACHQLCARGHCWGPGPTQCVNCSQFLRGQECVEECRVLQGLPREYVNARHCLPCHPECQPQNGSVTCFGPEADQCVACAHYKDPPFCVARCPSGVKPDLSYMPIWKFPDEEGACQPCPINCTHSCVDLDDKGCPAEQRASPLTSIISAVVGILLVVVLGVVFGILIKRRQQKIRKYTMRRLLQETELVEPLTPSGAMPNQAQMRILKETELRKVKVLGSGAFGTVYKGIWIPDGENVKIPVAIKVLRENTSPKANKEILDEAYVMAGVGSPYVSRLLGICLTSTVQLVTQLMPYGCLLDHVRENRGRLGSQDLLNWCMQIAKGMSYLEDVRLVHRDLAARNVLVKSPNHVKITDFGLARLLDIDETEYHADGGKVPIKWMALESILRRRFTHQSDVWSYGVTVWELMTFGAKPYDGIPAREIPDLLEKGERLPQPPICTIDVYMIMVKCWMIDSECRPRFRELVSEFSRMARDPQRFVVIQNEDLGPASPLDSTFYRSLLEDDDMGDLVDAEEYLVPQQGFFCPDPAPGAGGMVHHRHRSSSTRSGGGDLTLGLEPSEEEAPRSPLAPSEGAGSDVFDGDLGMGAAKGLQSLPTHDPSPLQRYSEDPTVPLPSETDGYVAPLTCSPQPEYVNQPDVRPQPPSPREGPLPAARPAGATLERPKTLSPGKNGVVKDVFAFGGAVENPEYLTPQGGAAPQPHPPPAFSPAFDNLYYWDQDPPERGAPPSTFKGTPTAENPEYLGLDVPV
T4 sequence (Q06187 whole entry): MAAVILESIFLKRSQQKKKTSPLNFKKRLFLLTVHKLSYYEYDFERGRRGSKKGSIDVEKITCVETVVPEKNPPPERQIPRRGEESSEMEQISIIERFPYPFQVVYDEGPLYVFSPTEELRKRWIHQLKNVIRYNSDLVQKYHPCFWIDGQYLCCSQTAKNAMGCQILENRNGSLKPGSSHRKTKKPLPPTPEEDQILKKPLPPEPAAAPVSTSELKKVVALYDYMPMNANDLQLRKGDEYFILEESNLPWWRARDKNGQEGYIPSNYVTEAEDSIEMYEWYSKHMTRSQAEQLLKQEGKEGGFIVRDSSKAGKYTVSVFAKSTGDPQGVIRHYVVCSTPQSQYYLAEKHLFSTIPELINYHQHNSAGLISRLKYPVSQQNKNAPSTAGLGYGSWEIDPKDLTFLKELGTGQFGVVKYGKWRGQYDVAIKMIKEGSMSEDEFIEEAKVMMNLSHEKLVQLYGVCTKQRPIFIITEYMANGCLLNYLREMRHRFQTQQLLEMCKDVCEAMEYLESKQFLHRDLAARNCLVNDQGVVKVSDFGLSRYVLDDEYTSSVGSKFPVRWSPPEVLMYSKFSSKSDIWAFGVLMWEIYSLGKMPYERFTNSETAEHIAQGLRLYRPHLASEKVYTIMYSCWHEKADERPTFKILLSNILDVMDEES

| Structure (SMILES) | inhibition at 1 µM (TEC) | inhibition at 1 µM (BMX) | inhibition at 1 µM (EGFR) | inhibition at 1 µM (JAK3) | inhibition at 1 µM (ERBB2) | inhibition at 1 µM (TXK) | inhibition at 1 µM (LTK) | inhibition at 1 µM (ERBB4) | inhibition at 1 µM (BLK) | logD (physchem) | solubility kinetic [1] | CLhep predicted at 1 µM [2] | CLhep predicted at 1 µM [3] | Papp A→B [4] | IC50 [5] | IC50 [6] | efflux ratio (in vitro) | Ki [7] |
| --- | --- | --- | --- | --- | --- | --- | --- | --- | --- | --- | --- | --- | --- | --- | --- | --- | --- | --- |
| C=CC(=O)Nc1cccc(Nc2nc(Nc3ccc(OCCOC)cc3)ncc2F)c1 [SPEBRUTINIB] | 92% | 99% | 34% | 89% | 6% | 95% | 19% | 76% | 44% | – | – | – | – | – | – | – | – | – |
| CC#CC(=O)N1CC[C@@H](n2c(=O)n(-c3ccc(Oc4ccccc4)cc3)c3c(N)ncnc32)C1 [TIRABRUTINIB] | 86% | – | -2% | -7% | 7% | 66% | -5% | 28% | 47% | – | – | – | – | – | – | – | – | – |
| Cc1c(-c2c(F)cc(C(N)=O)c3[nH]c4c(c23)CC[C@@H](C(C)(C)O)C4)cccc1-n1c(=O)c2cccc(F)c2n(C)c1=O | 98% | 80% | 7% | -2% | 1% | 81% | 47% | 38% | 82% | – | – | – | – | – | 0.374 µM | 0.0883 µM | – | – |
| C=CC(=O)N1CCC(CNc2ncnc(N)c2-c2ccc(Oc3ccccc3)cc2)CC1 [EVOBRUTINIB] | 80% | – | 1% | 0% | 1% | 30% | -2% | 57% | 42% | – | – | – | – | – | – | – | – | – |
| C=CC(=O)N1CCC[C@@H](n2nc(-c3ccc(Oc4ccccc4)cc3)c3c(N)ncnc32)C1 [IBRUTINIB] | 100% | – | – | 80% | 91% | 93% | 81% | 93% | 102% | – | – | – | – | – | – | – | – | – |

More lines, now with the values ahead:

| inhibition at 1 µM (TEC) | inhibition at 1 µM (BMX) | inhibition at 1 µM (EGFR) | inhibition at 1 µM (JAK3) | inhibition at 1 µM (ERBB2) | inhibition at 1 µM (TXK) | inhibition at 1 µM (LTK) | inhibition at 1 µM (ERBB4) | inhibition at 1 µM (BLK) | logD (physchem) | solubility kinetic [1] | CLhep predicted at 1 µM [2] | CLhep predicted at 1 µM [3] | Papp A→B [4] | IC50 [5] | IC50 [6] | efflux ratio (in vitro) | Ki [7] | Structure (SMILES) |
| --- | --- | --- | --- | --- | --- | --- | --- | --- | --- | --- | --- | --- | --- | --- | --- | --- | --- | --- |
| – | – | – | – | – | – | – | – | – | 3.1 | 12 µM (≈ 7.85 µg/mL) | 12.3 mL/min/kg | – | – | – | – | – | – | Cn1cc(-c2cc(F)cc(N3CCn4c(cc5c4CCCC5)C3=O)c2CO)cc(Nc2ccc(N3CCN(C4COC4)CC3)cn2)c1=O |
| – | – | – | – | – | – | – | – | – | 2.8 | – | 15 mL/min/kg | 14 mL/min/kg | 7.8 ×10⁻⁶ cm/s | – | – | – | – | C[C@@H]1CN(C2COC2)CCN1c1ccc(Nc2cc(-c3ccnc(N4CCn5c(cc6c5CC(C)(C)C6)C4=O)c3CO)cn(C)c2=O)nc1 |
| 71% | – | -1% | -3% | 36% | 31% | 2% | 93% | 16% | – | – | – | – | – | – | – | – | – | CC#CC(=O)N1CCC[C@H]1c1nc(-c2ccc(C(=O)Nc3ccccn3)cc2)c2c(N)nccn12 [ACALABRUTINIB] |
| – | – | – | – | – | – | – | – | – | 3.5 | – | 12 mL/min/kg | 12 mL/min/kg | 7.2 ×10⁻⁶ cm/s | – | 0.0102 µM | 0.9 | 0.0013 µM | C[C@@H]1CN(c2ccc(Nc3cc(-c4ccnc(N5CCn6c(cc7c6CC(C)(C)C7)C5=O)c4CO)cn(C)c3=O)nc2)[C@@H](C)CN1C1COC1 |
| – | – | – | – | – | – | – | – | – | – | – | 12 mL/min/kg | 10 mL/min/kg | 15.6 ×10⁻⁶ cm/s | – | 0.0515 µM | 1.2 | 0.0008 µM | C[C@H]1CN(C2COC2)CCN1c1cnc(Nc2cc(-c3ccnc(N4CCn5c(cc6c5CC(C)(C)C6)C4=O)c3CO)cn(C)c2=O)cn1 |
| – | – | – | – | – | – | – | – | – | 3.6 | – | 12 mL/min/kg | 16 mL/min/kg | 9.5 ×10⁻⁶ cm/s | – | 0.0159 µM | 0.9 | 0.00096 µM | CC[C@H]1CN(C2COC2)CCN1c1ccc(Nc2cc(-c3ccnc(N4CCn5c(cc6c5CC(C)(C)C6)C4=O)c3CO)cn(C)c2=O)nc1 |
| – | – | – | – | – | – | – | – | – | 3.7 | – | 11 mL/min/kg | 13 mL/min/kg | 17.3 ×10⁻⁶ cm/s | – | 0.0161 µM | 0.9 | – | C[C@H]1CN(C2COC2)CCN1c1ccc(Nc2cc(-c3ccnc(N4CCn5c(cc6c5CC(C)(C)C6)C4=O)c3CO)nn(C)c2=O)nc1 |
